Measurements published in patent publication US20220111065A1, “MOLECULAR ADJUVANT” (ADC THERAPEUTICS SA, priority 2018, published 2022).

B1: tremelimumab: anti-CTLA4 antibody (antibody)
VH: GVVQPGRSLRLSCAASGFTFSSYGMHWVRQAPGKGLEWVAVIWYDGSNKYYADSVKGRFTISRDNSKNTLYLQMNSLRAEDTAVYYCARDPRGATLYYYYYGMDVWGQGTTVTVSSASTKGPSVFPLAPCSRSTSESTAALGCLVKDYFPEPVTVSWNSGALTSGVH
VL: PSSLSASVGDRVTITCRASQSINSYLDWYQQKPGKAPKLLIYAASSLQSGVPSRFSGSGSGTDFTLTISSLQPEDFATYYCQQYYSTPFTFGPGTKVEIKRTVAAPSVFIFPPSDEQLKSGTASVVCLLNNFYPREAKV
modifications: Tremelimumab VH; Tremelimumab VL
notes: anti-CTLA4 antibody

Key:
[1] = tested on: CD25-positive acute myeloid leukemia (AML); experiment: Phase 1 study of ADCx25, weekly fractionated dosing, in relapsed or refractory AML/ALL (Example 2); format: in vivo, human
Description: Patients with relapsed or refractory cluster of differentiation 25 (CD25)-positive acute myeloid leukemia (AML) or CD25-positive acute lymphoblastic leukemia (ALL) who have failed, or are intolerant to, any established therapy known to provide clinical benefit at current state of disease. Patients with myelodysplastic syndrome who have received treatment with hypomethylating agents and subsequently present with CD25+ AML and who failed, or are ineligible for standard induction therapy, are eligible for treatment with ADCx25.
Assessment of response to treatment with ADCX25 will be based on bone marrow samples (aspirate or biopsy, if aspirate unattainable). The activity of ADCX25 will be evaluated based on the Investigator's evaluation of the patient's response to ADCX25 as CR, CRi, PR, PD, or NR as defined herein.
ADCX25 is a sterile formulation containing PBD-conjugated HuMax®-TAC (DAR≥1), HuMax®-TAC (DAR=0), and SG3249. It is provided pre-formulated in 10-mL glass vials containing approximately 30 mg of ADCX25 per vial (deliverable volume 5.4 mL at 6 mg/mL). The appropriate quantity of ADCX25 will be diluted in 50 mL of 5% dextrose in water (D5W).
Patients will receive a 1-hour intravenous (IV) infusion of ADCX25 on Day 1 of Cycle 1. […]

MC38 cells [2] = experiment: Re-challenge of tumor-free survivors from MC38 efficacy study (Example 3); format: in vivo, mouse; conditions: complete responders of Example 1 re-implanted with MC38 cells in contralateral flank; no treatment in re-challenge (FIG. 4)
Experimental: On Day 1 of the re-challenge study, 5×10^5 MC38 cells (0.1 mL suspension) were subcutaneously implanted into the left flank (contralateral to the original cell implant) and tumor growth was monitored. No ADC or anti-PD-1 treatment was administered in the rechallenge study.
Animal handling and tumour measurement was as in Example 1 unless otherwise stated.

CT26 cells = experiment: Re-challenge of tumor-free survivors from CT26 efficacy study (Example 5); format: in vivo, mouse; conditions: complete responders of Example 4 re-implanted with CT26 cells in contralateral flank; no treatment in re-challenge (FIG. 7)
Experimental: On Day 1 of the re-challenge study […] CT26 cells (0.1 mL suspension) were subcutaneously implanted into the left flank (contralateral to the cell implant of example 4) and tumor growth was monitored and measured as described in example 4.
No treatment was administered in the re-challenge study.

MC38 cells [3] = experiment: MC38 efficacy with CD8+ T-cell depletion by anti-CD8 (Example 6); format: in vivo, mouse; conditions: CD8+ T-cells depleted with anti-CD8-2.43 antibody (FIG. 8, FIG. 9)
Description: Treatment may cause partial regression (PR) or complete regression (CR) of the tumor in an animal.
In a PR response, the tumor volume is 50% or less of its Day 1 volume for three consecutive measurements during the course of the study, and equal to or greater than 13.5 mm^3 for one or more of these three measurements.
In a CR response, the tumor volume is less than 13.5 mm^3 for three consecutive measurements during the study.
Any animal with a CR response at the end of the study was additionally classified as a tumor-free survivor (TFS).
Animals were scored only once during the study for a PR or CR event and only as CR if both PR and CR criteria were satisfied.
The Coefficient of Drug Interaction (CDI) (11) in were assessed for subadditive, additive, or supra-additive (synergism) properties on Day 21, the last day all evaluable animals remained on study.
The CDI was determined according to the equation below:
Where, • x=mean tumor volume • AB=xAB/xC • A=xA/xC • B=xB/xC […]
On the day of implant 5×10^5 MC38 cells (0.1 mL suspension) were subcutaneously implanted into the right flank of each test animal. Tumors were monitored as their volumes approached the target range of 80-120 mm^3. […]
Tumors were measured twice per week until the study was ended (day29 for anti-CD8+surADCx25 and anti-CD8+anti-PD1+surADCx25 groups; day 44 for surADCx25 alone and surADCx25+anti-CD8). […]

[4] = tested on: selected advanced solid tumors; experiment: Phase 1b dose-escalation study of Camidanlumab Tesirine in advanced solid tumors (Example 9); format: in vivo, human
Description: This is a report of preliminary data from a Phase 1b trial of Camidanlumab Tesirine (NCT03621982; ADC Therapeutics) in patients (pt) with selected advanced solid tumors […] (AST) who have failed existing therapies.
This multicenter, open-label, dose-escalation (part 1), and dose-expansion (part 2) study is currently enrolling subjects (aged≥18 years) with selected AST. The primary objective is to evaluate the safety and tolerability and to identify the recommended dose. Secondary objectives are to assess preliminary antitumor activity, pharmacokinetics (PK), and immunogenicity.
Subjects receive 1-hour intravenous infusions of Camidanlumab Tesirine every 3 weeks (Q3W) from a starting dose cohort of 20 μg/kg. Subsequent cohorts are enrolled at escalating doses according to a 3+3 design.

advanced melanoma = conditions: phase III trials; cited from earlier work
[5] = 6 subjects, 20-30 μg/kg Q3W i.v., preliminary

Molecule	clinical response of AML ([1]; 2 subjects with AML who had previously received bone marrow stem cell transfers)	response to treatment ([1]; Patient 1: relapsed AML FAB M0, 30 ug/kg QW cohort, prior allogenic transplant, after 5 cycles)	development of new tumors on re-challenge (MC38 cells [2])	development of new tumors on re-challenge (CT26 cells)	anti-tumor activity when CD8+ T-cells are depleted (MC38 cells [3])	number of subjects with stable disease ([4]; 20 μg/kg Q3W)	number of subjects with stable disease ([4]; 30 μg/kg Q3W, reported a few days after the cutoff date)	dose-limiting toxicities ([4]; 6 subjects, 20-30 μg/kg Q3W i.v., 21-day reporting period, preliminary, as of Apr. 16, 2019)	best response recorded (response evaluation criteria in solid tumors) [4, 5]	most common (≥3 pts) adverse events regardless of relationship [4, 5]	related high-grade AEs or serious AEs [4, 5]	overall survival compared to the standard of care (temozolomide or dacarbazine) (advanced melanoma)
ADCx25: human antibody against human CD25 (AB12, HuMax-TAC) attached to a pyrrolobenzodiazepine (PBD) warhead via a cleavable linker	complete remission	CRi	did not develop new tumors	did not develop new tumors	dependent on CD8+ T-cells	2	2	No dose-limiting toxicities	Stable disease	fatigue and nausea	no reported grade ?3 AEs or serious AEs considered related	–
B1	–	–	–	–	–	–	–	–	–	–	–	did not significantly increase
